# Assay results taken from the supplement of paper PMC10307832.
# Legend:
# Assay in all cases: relative viability (nuclei count vs DMSO), 5 days (fraction); higher = more cells survive
# NCI-H3122 = tested on: NCI-H3122
# Summary of the method: (§1)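 Dosing by pin tool came one day after lung cancer cell lines were seeded in 1536-well plates, using either one drug or a fixed anchor-drug dose plus five library-drug doses (not always all listed) in √10 steps. After 5 days, nuclei were counted on 4× images. Relative viability is treated-well nuclei count divided by vehicle-well nuclei count, and values are medians of duplicate plates.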
# HCC-78 = tested on: HCC-78
# Summary of the method: as §1
# EPLC-272H = tested on: EPLC-272H
# Summary of the method: as §1
# LXF-289 = tested on: LXF-289
# Summary of the method: as §1
# HCC-15 = tested on: HCC-15
# Summary of the method: as §1
# ChaGo-K-1 = tested on: ChaGo-K-1
# Summary of the method: as §1
# NCI-H1755 = tested on: NCI-H1755
# Summary of the method: as §1
# NCI-H2023 = tested on: NCI-H2023
# Summary of the method: as §1
# NCI-H1666 = tested on: NCI-H1666
# Summary of the method: as §1
# NCI-H441 = tested on: NCI-H441
# Summary of the method: as §1
# NCI-H2126 = tested on: NCI-H2126
# Summary of the method: as §1
compound,measurement,setting,value
Nc1ccn([C@@H]2O[C@H](CO)[C@@H](O)[C@@H]2O)c(=O)n1 [Cytarabine] + Nc1ncn([C@H]2C[C@H](O)[C@@H](CO)O2)c(=O)n1 [Decitabine] (partner 2 µM),relative viability,NCI-H3122; first compound 0.05 µM,0.374
same,relative viability,NCI-H3122; first compound 0.1581 µM,0.228
same,relative viability,NCI-H3122; first compound 0.5 µM,0.26
same,relative viability,HCC-78; first compound 0.005 µM,0.715
same,relative viability,HCC-78; first compound 0.01581 µM,0.668
same,relative viability,HCC-78; first compound 0.05 µM,0.587
same,relative viability,HCC-78; first compound 0.1581 µM,0.492
same,relative viability,HCC-78; first compound 0.5 µM,0.44
same,relative viability,EPLC-272H; first compound 0.005 µM,0.403
same,relative viability,EPLC-272H; first compound 0.01581 µM,0.358
same,relative viability,EPLC-272H; first compound 0.05 µM,0.346
same,relative viability,EPLC-272H; first compound 0.1581 µM,0.224
same,relative viability,EPLC-272H; first compound 0.5 µM,0.247
same,relative viability,LXF-289; first compound 0.005 µM,0.387
same,relative viability,LXF-289; first compound 0.01581 µM,0.312
same,relative viability,LXF-289; first compound 0.05 µM,0.314
same,relative viability,LXF-289; first compound 0.1581 µM,0.227
same,relative viability,LXF-289; first compound 0.5 µM,0.197
same,relative viability,HCC-15; first compound 0.005 µM,0.511
same,relative viability,HCC-15; first compound 0.01581 µM,0.528
same,relative viability,HCC-15; first compound 0.05 µM,0.594
same,relative viability,HCC-15; first compound 0.1581 µM,0.462
same,relative viability,HCC-15; first compound 0.5 µM,0.464
same,relative viability,ChaGo-K-1; first compound 0.005 µM,0.475
same,relative viability,ChaGo-K-1; first compound 0.01581 µM,0.413
same,relative viability,ChaGo-K-1; first compound 0.05 µM,0.339
same,relative viability,ChaGo-K-1; first compound 0.1581 µM,0.252
same,relative viability,ChaGo-K-1; first compound 0.5 µM,0.225
same,relative viability,NCI-H1755; first compound 0.005 µM,0.705
same,relative viability,NCI-H1755; first compound 0.01581 µM,0.619
same,relative viability,NCI-H1755; first compound 0.05 µM,0.659
same,relative viability,NCI-H1755; first compound 0.1581 µM,0.472
same,relative viability,NCI-H1755; first compound 0.5 µM,0.424
same,relative viability,NCI-H2023; first compound 0.005 µM,0.169
same,relative viability,NCI-H2023; first compound 0.01581 µM,0.116
same,relative viability,NCI-H2023; first compound 0.05 µM,0.114
same,relative viability,NCI-H2023; first compound 0.1581 µM,0.0751
same,relative viability,NCI-H2023; first compound 0.5 µM,0.0656
same,relative viability,NCI-H1666; first compound 0.005 µM,0.73
same,relative viability,NCI-H1666; first compound 0.01581 µM,0.633
same,relative viability,NCI-H1666; first compound 0.05 µM,0.543
same,relative viability,NCI-H1666; first compound 0.1581 µM,0.523
same,relative viability,NCI-H1666; first compound 0.5 µM,0.455
same,relative viability,NCI-H441; first compound 0.005 µM,0.289
same,relative viability,NCI-H441; first compound 0.01581 µM,0.186
same,relative viability,NCI-H441; first compound 0.05 µM,0.268
same,relative viability,NCI-H441; first compound 0.1581 µM,0.182
same,relative viability,NCI-H441; first compound 0.5 µM,0.153
same,relative viability,NCI-H2126; first compound 0.005 µM,0.597
same,relative viability,NCI-H2126; first compound 0.01581 µM,0.518
same,relative viability,NCI-H2126; first compound 0.05 µM,0.514
same,relative viability,NCI-H2126; first compound 0.1581 µM,0.457
same,relative viability,NCI-H2126; first compound 0.5 µM,0.429
